Assay results from US20080269335A1, “Crth2 Receptor Antagonists” (priority 2004, published 2008).
Where two headings read alike, the source gives them in different places.

Columns and labels:
[1] = target: T1, CRTh2 receptor (Homo sapiens, UniProt Q9Y5Y4); assay: Scintillation Proximity Assay (SPA) binding assay, 3H prostaglandin D2; set-up: expressed in transfected cells; host or cells: K562 or CHO cells (membranes)
T1 sequence (Q9Y5Y4 1-395): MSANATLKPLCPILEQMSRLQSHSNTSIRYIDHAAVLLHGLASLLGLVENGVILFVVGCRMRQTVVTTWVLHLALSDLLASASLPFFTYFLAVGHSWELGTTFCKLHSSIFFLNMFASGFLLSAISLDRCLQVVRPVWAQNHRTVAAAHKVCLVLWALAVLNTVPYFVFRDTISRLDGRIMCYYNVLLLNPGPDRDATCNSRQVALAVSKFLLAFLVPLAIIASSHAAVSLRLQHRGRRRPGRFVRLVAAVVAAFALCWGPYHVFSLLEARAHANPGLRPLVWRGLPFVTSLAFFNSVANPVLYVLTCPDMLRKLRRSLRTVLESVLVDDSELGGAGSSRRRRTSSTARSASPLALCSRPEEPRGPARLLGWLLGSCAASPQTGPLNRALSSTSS
Experimental: Scintillation Proximity Assay (SPA) Protocol
Membranes are prepared from K562 or Chinese hamster ovary (CHO) cells stably transfected with human CRTh2 receptors.
The assay is performed in a 96 well U-bottomed polypropylene plate in a final volume of 100 μL. For each concentration of test compound on the dose-response curve, the components of the assay are added sequentially as follows: test compound in DMSO/assay buffer (25 μL), ^3H prostaglandin D2 (25 μL) and CRTh2 membrane fragments (50 μL). The assay is incubated at ambient temperature with shaking for 60 minutes, and then harvested on to filter plates. The plate is dried for 2 hours, prior to addition of Micro-Scint 20™ (50 μL) and sealing with TopSeal-S™. Plates are then counted using a Packard Top Count instrument, each well being counted for 20 minutes. Ki values are determined using Sigma Plot™ software, using the Cheng-Prussoff equation.

[2] = target: T1, CRTh2 receptor; assay: CRTh2 cAMP functional assay; assay type: cell-based; set-up: expressed in transfected cells; host or cells: CHO cells; conditions: CHO cells stably transfected with CRTh2; 10 nM Prostaglandin D2 and 5 μM forskolin; cAMP Alphascreen
Experimental: CRTh2 cAMP Functional Assay Protocol
For each concentration value on the dose-response curve, test compounds are prepared in assay stimulation buffer/DMSO and 5 μL/well is added to an assay plate (384 well, white optiplate).
CHO cells stably transfected with the CRTh2 receptor are prepared (dissociated from a cell culture flask and washed in PBS) to a concentration of 4×10^6/mL in assay stimulation buffer and added to the assay plate ([…]).
The assay plate is incubated at room temperature on a shaker for 15 minutes.
A mix of agonist (10 nM Prostaglandin D2) and 5 μM forskolin is prepared in assay stimulation buffer and added to the assay plate (5 μL/well).
In addition, a cAMP standard is serially diluted in assay stimulation buffer and added to separate empty wells on the assay plate (20 μL/well).
The assay plate is incubated at room temperature on a shaker for 60 minutes.
A cell lysis mix (lysis buffer containing Alphascreen™ donor beads and biotinylated cAMP) is prepared under darkened conditions 60 minutes prior to addition. Alphascreen™ acceptor beads are added to the lysis mix after 60 minutes. The resulting lysis mix is added to all wells of the assay plate (40 μL/well).
The assay plate is sealed with Topseal-S™ and incubated in the dark at room temperature on a shaker for 45 minutes. The plate is then counted using a Packard Fusion™ instrument.
The resulting counts per minute are converted to nM cAMP by using the prepared cAMP standard curve. IC50 values are then determined using Prism™ software.

[3] = membranes from K562 or CHO cells stably transfected with human CRTh2, 3H prostaglandin D2, read-out: Ki values in the SPA binding assay

Ki [1, 3] [nM]	IC50 [2] [nM]	Compound	Ki [1] [nM]
70	138	O=C(O)COc1ccc(Br)cc1C1CCCCCC1 [Example 5, (4-Bromo-2-cycloheptylphenoxy)acetic acid]	
21	139	O=C(O)COc1ccc(C(F)(F)F)cc1C1CCCCC1 [Example 13, (2-Cyclohexyl-4-trifluoromethyl-phenoxy)-acetic acid]	
	190	O=C(O)COc1ccc(Br)cc1C1CCCCC1 [Example 3, (4-Bromo-2-cyclohexylphenoxy)acetic acid]	

Compound	Ki [1, 3] [nM]	IC50 [2] [nM]	Ki [1] [nM]
O=C(O)COc1ccc(Cl)cc1C1CCCCCC1 [Example 2, (4-Chloro-2-cycloheptylphenoxy)acetic acid]		148	60
